In brackets after ≈: the same amount, converted by molar mass.
How the values were obtained:
[1] = Dose normalized AUC in mouse at 5 mg/kg, po measured up to 24 hrs by LC-MS/MS analysis; format: ADME, organism-based; settings: in vivo
[2] = Dose normalized Cmax in rat at 10 mg/kg, po measured up to 24 hrs by LC-MS/MS analysis; format: ADME, organism-based; settings: in vivo
[3] = Intrinsic clearance in human liver microsomes at 1 uM in presence of NADPH and measured up to 30 mins by LC-MS/MS analysis; format: ADME, Microsome; settings: read-out: CLH
[4] = Tmax in rat at 10 mg/kg, po measured up to 24 hrs by LC-MS/MS analysis; format: ADME, organism-based; settings: in vivo
[5] = Protein binding in Sprague-Dawley rat plasma at 10 uM incubated for 4 hrs under shaking condition by LC-MS/MS analysis; format: ADME, cell-free; settings: read-out: PPB (converted)
[6] = system: MOLT-4; assay: Cytotoxicity against human MOLT4 cells assessed as reduction in cell viability after 72 hrs by Cell-titer Glo assay; format: cell-based; settings: MOLT-4, 72 h
[7] = Intrinsic clearance in mouse liver microsomes at 1 uM in presence of NADPH and measured up to 30 mins by LC-MS/MS analysis; format: ADME, Microsome; settings: read-out: CLH
[8] = system: Morganella morganii; assay: Antibacterial activity against Morganella morganii clinical isolates by CLSI-based broth microdilution assay; format: functional
[9] = system: Klebsiella pneumoniae; assay: Antibacterial activity against wild type Klebsiella pneumoniae ATCC 43816 by CLSI-based broth microdilution assay; format: functional
[10] = system: Escherichia coli; assay: Antibacterial activity against wild type Escherichia coli ATCC 25922 at pH 5.8 by CLSI-based broth microdilution assay; format: functional
[11] = system: K562; assay: Cytotoxicity against human K562 cells assessed as reduction in cell viability after 72 hrs by Cell-titer Glo assay; format: cell-based; settings: K562, 72 h
[12] = Volume of distribution at steady state in rat at 5 mg/kg, iv or 10 mg/kg, po measured up to 24 hrs by LC-MS/MS analysis; format: ADME, organism-based; settings: in vivo, read-out: Vdss
[13] = system: HepG2; assay: Cytotoxicity against human HepG2 cells assessed as reduction in cell viability after 72 hrs by Cell-titer Glo assay; format: cell-based; settings: HepG2, 72 h
[14] = system: Enterobacter; assay: Antibacterial activity against Enterobacter clinical isolates by CLSI-based broth microdilution assay; format: functional
[15] = Dose normalized Cmax in mouse at 5 mg/kg, po measured up to 24 hrs by LC-MS/MS analysis; format: ADME, organism-based; settings: in vivo
[16] = Oral bioavailability in rat at 10 mg/kg measured up to 24 hrs by LC-MS/MS analysis; format: ADME, organism-based; settings: in vivo
[17] = Protein binding in CD1 mouse plasma at 10 uM incubated for 4 hrs under shaking condition by LC-MS/MS analysis; format: ADME, cell-free; settings: read-out: PPB (converted)
[18] = Protein binding in pooled human plasma at 10 uM incubated for 4 hrs under shaking condition by LC-MS/MS analysis; format: ADME, cell-free; settings: read-out: PPB (converted)
[19] = system: Escherichia coli; assay: Antibacterial activity against Escherichia coli BW25113/JW0451-2 harboring AcrB deletion mutant by CLSI-based broth microdilution assay; format: functional
[20] = Solubility of the compound in pH 7 PBS incubated for 24 hrs under gently shaking condition by UPLC/UV/CLND/MS analysis; format: physicochemical; settings: PBS, pH 7
[21] = system: Pseudomonas aeruginosa; assay: Antibacterial activity against Pseudomonas aeruginosa clinical isolates by CLSI-based broth microdilution assay; format: functional
[22] = Tmax in mouse at 5 mg/kg, po measured up to 24 hrs by LC-MS/MS analysis; format: ADME, organism-based; settings: in vivo
[23] = Oral bioavailability in mouse at 5 mg/kg measured up to 24 hrs by LC-MS/MS analysis; format: ADME, organism-based; settings: in vivo
[24] = system: Escherichia coli; assay: Ratio of MIC for antibacterial activity against wild type Escherichia coli ATCC 25922 at pH 5.8 to MIC for antibacterial activity against wild type Escherichia coli ATCC 25922 at pH 7.4; format: functional
[25] = system: Escherichia coli; assay: Bacteriostatic activity against Escherichia coli ATCC 25922 infected in mouse model of neutropenic thigh infection assessed as static dose compound administered subcutaneously 2 hrs post infection and measured after 24 hrs by serial dilution method; format: functional
[26] = system: Serratia marcescens; assay: Antibacterial activity against Serratia marcescens clinical isolates by CLSI-based broth microdilution assay; format: functional
[27] = Inhibition of recombinant full-length C-terminal His6-tagged Escherichia coli DNA topoisomerase 4 subunit ParC/ParE using kinetoplast DNA as substrate preincubated for 30 mins followed by substrate addition and measured after 1 hr in presence of ATP by size exclusion chromatography
[28] = Dose normalized AUC in rat at 10 mg/kg, po measured up to 24 hrs by LC-MS/MS analysis; format: ADME, organism-based; settings: in vivo
[29] = system: Proteus mirabilis; assay: Antibacterial activity against Proteus mirabilis clinical isolates by CLSI-based broth microdilution assay; format: functional
[30] = Intrinsic clearance in rat liver microsomes at 1 uM in presence of NADPH and measured up to 30 mins by LC-MS/MS analysis; format: ADME, Microsome; settings: read-out: CLH
[31] = Dissociation constant, pKa of the compound by UV metric method; format: physicochemical
[32] = system: Pseudomonas aeruginosa; assay: Antibacterial activity against Pseudomonas aeruginosa K1542/K767 harboring MexB/MexXY deletion mutant by CLSI-based broth microdilution assay; format: functional
[33] = system: Citrobacter; assay: Antibacterial activity against Citrobacter clinical isolates by CLSI-based broth microdilution assay; format: functional
[34] = system: Pseudomonas aeruginosa; assay: Antibacterial activity against wild type Pseudomonas aeruginosa PAO1 K767 by CLSI-based broth microdilution assay; format: functional
[35] = system: Escherichia coli; assay: Antibacterial activity against Escherichia coli clinical isolates by CLSI-based broth microdilution assay; format: functional
[36] = system: Escherichia coli; assay: Antibacterial activity against wild type Escherichia coli ATCC 25922 at pH 7.4 by CLSI-based broth microdilution assay; format: functional
[37] = system: NIH3T3; assay: Phototoxicity against BALB/c mouse 3T3 cells assessed as reduction in cell viability preincubated for 1 hr followed by 5 J/cm2 UVA sunlight irradiation for 50 mins and subsequent replacement of medium and measured after 24 hrs by neutral red uptake assay; format: cell-based; settings: NIH3T3, light or radiation study
[38] = system: Pseudomonas aeruginosa; assay: Antibacterial activity against Pseudomonas aeruginosa NB52023 harboring gyrA T83I mutant/ParC S87L mutant by CLSI-based broth microdilution assay; format: functional
[39] = system: Escherichia coli; assay: Antibacterial activity against Escherichia coli ATCC 25922 infected in mouse model of neutropenic thigh infection compound administered subcutaneously 2 hrs post infection and measured after 24 hrs by serial dilution method; format: functional
[40] = molecular target: Voltage-gated inwardly rectifying potassium channel KCNH2 (Homo sapiens, UniProt Q12809); assay: Inhibition of human ERG expressed in CHOK1 cells measured for 10 mins by QPatch automated patch-clamp assay; format: cell-based, CHO-K1
Chain of Voltage-gated inwardly rectifying potassium channel KCNH2 (Q12809 whole entry): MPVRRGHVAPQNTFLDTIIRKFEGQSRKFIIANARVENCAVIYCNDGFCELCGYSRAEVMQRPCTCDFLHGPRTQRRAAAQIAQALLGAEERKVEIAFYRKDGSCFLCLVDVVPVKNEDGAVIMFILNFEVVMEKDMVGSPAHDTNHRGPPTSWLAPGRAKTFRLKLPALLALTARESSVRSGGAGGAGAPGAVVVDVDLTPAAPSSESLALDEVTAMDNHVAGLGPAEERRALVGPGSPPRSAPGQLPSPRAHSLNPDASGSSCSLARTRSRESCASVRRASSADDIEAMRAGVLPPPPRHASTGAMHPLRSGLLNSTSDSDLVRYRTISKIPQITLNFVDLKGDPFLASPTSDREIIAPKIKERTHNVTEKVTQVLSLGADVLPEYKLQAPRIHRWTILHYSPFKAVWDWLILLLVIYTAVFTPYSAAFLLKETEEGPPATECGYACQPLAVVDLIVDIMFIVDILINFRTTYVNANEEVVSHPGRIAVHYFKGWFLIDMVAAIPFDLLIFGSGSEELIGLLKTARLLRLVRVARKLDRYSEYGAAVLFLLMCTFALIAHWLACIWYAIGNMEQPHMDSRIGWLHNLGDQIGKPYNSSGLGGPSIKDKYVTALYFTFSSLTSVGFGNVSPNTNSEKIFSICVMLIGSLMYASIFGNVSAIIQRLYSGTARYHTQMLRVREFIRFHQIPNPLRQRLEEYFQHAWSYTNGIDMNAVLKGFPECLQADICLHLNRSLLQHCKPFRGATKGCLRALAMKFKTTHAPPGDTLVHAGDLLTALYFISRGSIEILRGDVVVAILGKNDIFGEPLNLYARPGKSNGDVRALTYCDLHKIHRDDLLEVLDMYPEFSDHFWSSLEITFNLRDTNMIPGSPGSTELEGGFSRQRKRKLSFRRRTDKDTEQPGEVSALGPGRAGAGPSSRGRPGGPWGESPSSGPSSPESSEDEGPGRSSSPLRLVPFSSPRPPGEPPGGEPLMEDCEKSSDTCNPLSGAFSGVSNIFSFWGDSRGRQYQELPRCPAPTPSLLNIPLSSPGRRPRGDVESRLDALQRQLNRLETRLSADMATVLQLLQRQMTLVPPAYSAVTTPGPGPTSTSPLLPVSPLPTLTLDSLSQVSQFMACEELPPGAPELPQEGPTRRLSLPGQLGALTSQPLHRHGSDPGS

Cc1c(N2CC3CC3(N)C2)c(F)cc2c(CN)c(F)c(=O)n(C3CC3)c12 (centres undefined)
AUC/dose [1]: 0.31 µM·h/mg/kg
Cmax/dose [2]: 0.01 µM/mg/kg
microsomal CLint at 1 µM [3]: 18 µL/min/mg
Tmax [4]: 78 min
fraction unbound at 4 h, 10 µM [5]: 0.42
EC50 [6]: 29 µM
microsomal CLint at 1 µM [7]: 40 µL/min/mg
MIC [8]: 0.06 to 32 µg/mL (≈ 0.166 to 88.8 µM)
MIC50 [8]: 1 µg/mL (≈ 2.77 µM)
MIC90 [8]: 8 µg/mL (≈ 22.2 µM)
MIC [9]: 0.125 µg/mL (≈ 0.347 µM)
MIC [10]: 32 µg/mL (≈ 88.8 µM)
EC50 [11]: 40 µM
Vd [12]: 24.1 L/kg
EC50 [13]: 82 µM
MIC [14]: 0.06 to 32 µg/mL (≈ 0.166 to 88.8 µM)
MIC50 [14]: 1 µg/mL (≈ 2.77 µM)
MIC90 [14]: 8 µg/mL (≈ 22.2 µM)
Cmax/dose [15]: 0.1 µM/mg/kg
bioavailability [16]: 15%
fraction unbound at 4 h, 10 µM [17]: 0.68
fraction unbound at 4 h, 10 µM [18]: 0.65
MIC [19]: ≤ 0.03 µg/mL
solubility at 24 h [20]: 1280 µg/mL (≈ 3540 µM)
MIC [21]: 1 to 32 µg/mL (≈ 2.77 to 88.8 µM)
MIC50 [21]: 8 µg/mL (≈ 22.2 µM)
MIC90 [21]: 32 µg/mL (≈ 88.8 µM)
Tmax [22]: 30 min
bioavailability [23]: 36%
Ratio [24]: 512
Activity [25]: 45.5 mg/kg/day
MIC [26]: 0.06 to 32 µg/mL (≈ 0.166 to 88.8 µM)
MIC50 [26]: 1 µg/mL (≈ 2.77 µM)
MIC90 [26]: 8 µg/mL (≈ 22.2 µM)
IC50 [27]: 0.81 µM
AUC/dose [28]: 0.1 µM·h/mg/kg
MIC [29]: 0.06 to 32 µg/mL (≈ 0.166 to 88.8 µM)
MIC50 [29]: 1 µg/mL (≈ 2.77 µM)
MIC90 [29]: 8 µg/mL (≈ 22.2 µM)
microsomal CLint at 1 µM [30]: 117 µL/min/mg
pKa [31]: 7.6 to 8
MIC [32]: 0.25 µg/mL (≈ 0.694 µM)
MIC [33]: 0.06 to 32 µg/mL (≈ 0.166 to 88.8 µM)
MIC50 [33]: 1 µg/mL (≈ 2.77 µM)
MIC90 [33]: 8 µg/mL (≈ 22.2 µM)
MIC [34]: 1 µg/mL (≈ 2.77 µM)
MIC [35]: 0.06 to 8 µg/mL (≈ 0.166 to 22.2 µM)
MIC50 [35]: 1 µg/mL (≈ 2.77 µM)
MIC90 [35]: 2 µg/mL (≈ 5.55 µM)
MIC [36]: 0.06 µg/mL (≈ 0.166 µM)
IC50 [37]: 1.61 µM
MIC [38]: 0.5 µg/mL (≈ 1.39 µM)
MIC [39]: 0.06 µg/mL (≈ 0.166 µM)
IC50 [40]: 114 µM

Reference: ChEMBL document CHEMBL4616724, “Topoisomerase Inhibitors Addressing Fluoroquinolone Resistance in Gram-Negative Bacteria” (J Med Chem, 2020)
